The values that follow come from PubChem BioAssay AID330 (DTP/NCI, 2004).

The subject of the test is P388 leukemia ip, CD2F1 mice, survival T/C. The test is described as follows: NCI In Vivo Anticancer Drug Screen. Data for tumor model P388 Leukemia (intraperitoneal) in CD2F1 (CDF1) mice. The conditions noted are these: endpoint: median survival time, higher = longer survival. The gist of the method:
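Mice carrying the transplanted tumor received test compound or vehicle. Survival was recorded in each group, and the value is the treated-group measurement divided by that of the vehicle-treated control group.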

Setting [1] is: dose: 50.0 mg/kg/injection, schedule: Q01DX009 (ip), vehicle: other.
[2] abbreviates: dose: 100.0 mg/kg/injection, schedule: Q01DX009 (ip), vehicle: other.
[3] abbreviates: dose: 50.0 mg/kg/injection, schedule: Q01DX009 (ip), vehicle: Klucel (hydroxypropylcellulose) (HPC).
The mark [4] stands for this setting: dose: 100.0 mg/kg/injection, schedule: Q01DX009 (ip), vehicle: Klucel (hydroxypropylcellulose) (HPC).
Setting [5] is: dose: 200.0 mg/kg/injection, schedule: Q01DX009 (ip), vehicle: Klucel (hydroxypropylcellulose) (HPC).
[6] abbreviates: dose: 50.0 mg/kg/injection, schedule: Q01DX005 (ip), vehicle: saline with Tween-80.
Where [7] appears, read: dose: 100.0 mg/kg/injection, schedule: Q01DX005 (ip), vehicle: saline with Tween-80.
Setting [8] is: dose: 200.0 mg/kg/injection, schedule: Q01DX005 (ip), vehicle: saline with Tween-80.

Several values for one entry are separate records, joined by “and”; a condition that tells them apart may be missing. Identical values can stand only once. Toxic doses and inconclusive results are not listed.

`CCCCNC(C)(C)C(SSSC(c1ccco1)C(C)(C)NCCCC)c1ccco1` (configuration not stated): the T/C by setting is: (dose: 12.5 mg/kg/injection, schedule: Q01DX009 (ip), vehicle: saline) 109 % of control; (dose: 25.0 mg/kg/injection, schedule: Q01DX009 (ip), vehicle: saline) 113 % of control; (dose: 50.0 mg/kg/injection, schedule: Q01DX009 (ip), vehicle: saline) 113 % of control; (dose: 66.0 mg/kg/injection, schedule: Q04DX003 (ip), vehicle: saline) 100 % of control; (dose: 100.0 mg/kg/injection, schedule: Q04DX003 (ip), vehicle: saline) 118 % of control; (dose: 150.0 mg/kg/injection, schedule: Q04DX003 (ip), vehicle: saline) 109 % of control.

Consider `CCOC(=O)C(CC(=O)O)Cc1cccc(OC)c1OC` (configuration not stated), for which the T/C by setting is: (dose: 25.0 mg/kg/injection, schedule: Q01DX009 (ip), vehicle: other) 101 % of control; under setting [1], 100 % of control; under setting [2], 111 % of control; (dose: 200.0 mg/kg/injection, schedule: Q01DX009 (ip), vehicle: other) 97 % of control; (dose: 400.0 mg/kg/injection, schedule: Q01DX009 (ip), vehicle: other) 93 % of control.

For `Nc1ccc(/C=C/c2ccnc3ccccc23)c(N)c1`, the T/C by setting is: (dose: 1.25 mg/kg/injection, schedule: Q01DX001 (ip), vehicle: Klucel (hydroxypropylcellulose) (HPC)) 107 % of control; (dose: 2.5 mg/kg/injection, schedule: Q01DX001 (ip), vehicle: Klucel (hydroxypropylcellulose) (HPC)) 108 % of control; (dose: 5.0 mg/kg/injection, schedule: Q01DX001 (ip), vehicle: Klucel (hydroxypropylcellulose) (HPC)) 114 % of control; (dose: 10.0 mg/kg/injection, schedule: Q01DX001 (ip), vehicle: Klucel (hydroxypropylcellulose) (HPC)) 107 % of control.

On to `N#Cc1ccc(OCCCCOc2ccc(C#N)cc2)cc1`, for which the T/C by setting is: (dose: 6.25 mg/kg/injection, schedule: Q01DX005 (ip), vehicle: saline with Tween-80) 95 % of control; (dose: 12.5 mg/kg/injection, schedule: Q01DX005 (ip), vehicle: saline with Tween-80) 97 % of control; (dose: 25.0 mg/kg/injection, schedule: Q01DX005 (ip), vehicle: saline with Tween-80) 91 % of control.

For the molecule `CC(C)(O)C1COC2=C1C(=O)c1ccccc1C2=O` (configuration not stated), the T/C is 94 % of control under setting [1] and 107 % of control under setting [2].

As to `CC(Cl)C(=O)c1ccc(N)cc1` (configuration not stated), the T/C under setting [3] is 99 % of control, the T/C under setting [4] was 99 % of control and the T/C under setting [5] was 99 % of control.

In the case of `O=S(=O)(CCc1ccccc1)c1nc2ccccc2s1`, the T/C by setting is: (dose: 60.0 mg/kg/injection, schedule: Q01DX005 (ip), vehicle: Klucel (hydroxypropylcellulose) (HPC)) 99 % of control; (dose: 120.0 mg/kg/injection, schedule: Q01DX005 (ip), vehicle: Klucel (hydroxypropylcellulose) (HPC)) 100 % of control; (dose: 240.0 mg/kg/injection, schedule: Q01DX005 (ip), vehicle: Klucel (hydroxypropylcellulose) (HPC)) 101 % of control.

On to `CSC(SC)=C1CCCC(=C(SC)SC)C1=O`, for which the T/C is, setting by setting: under setting [6], 100 % of control; under setting [7], 104 % of control; under setting [8], 99 % of control.

`COc1ccccc1C(=O)Nc1c(C)cccc1Cl`: the T/C runs as follows: (dose: 60.0 mg/kg/injection, schedule: Q01DX005 (ip), vehicle: saline with Tween-80) 100 % of control; (dose: 120.0 mg/kg/injection, schedule: Q01DX005 (ip), vehicle: saline with Tween-80) 103 % of control; (dose: 240.0 mg/kg/injection, schedule: Q01DX005 (ip), vehicle: saline with Tween-80) 94 % of control.

Consider `CC1=CC(=N/Br)/C=CC/1=N/Br`, for which the T/C was 108 % of control under setting [6], 100 % of control under setting [7] and 99 % of control under setting [8].

For the molecule `CN(Cc1cnc2nc(N)nc(N)c2n1)c1ccc(C(=O)NC(CCC(=O)O)C(=O)O)cc1Br` (configuration not stated), the T/C by setting is: (dose: 0.62 mg/kg/injection, schedule: Q01DX009 (ip), vehicle: saline sonified) 209 % of control; (dose: 1.25 mg/kg/injection, schedule: Q01DX009 (ip), vehicle: saline sonified) 236 % of control; (dose: 2.5 mg/kg/injection, schedule: Q01DX009 (ip), vehicle: saline sonified) 245 % of control; (dose: 5.0 mg/kg/injection, schedule: Q04DX003 (ip), vehicle: saline with Tween-80) 200 % of control; (dose: 6.6 mg/kg/injection, schedule: Q04DX003 (ip), vehicle: saline with Tween-80) 166 % of control; (dose: 10.0 mg/kg/injection, schedule: Q04DX003 (ip), vehicle: saline with Tween-80) 166 % of control and 200 % of control.

As to `CC1OC(=Nc2ccccc2)NC1=O` (configuration not stated), the T/C (dose: 100.0 mg/kg/injection, schedule: Q01DX001 (ip), vehicle: saline with Tween-80) was 97 % of control and the T/C (dose: 200.0 mg/kg/injection, schedule: Q01DX001 (ip), vehicle: saline with Tween-80) was 89 % of control.

On to `Cc1cc(=O)[nH]c(NNC(=O)c2ccc(Cl)cc2)n1`, for which the T/C (dose: 25.0 mg/kg/injection, schedule: Q01DX009 (ip), vehicle: distilled water + Tween-80) was 93 % of control; the T/C (dose: 50.0 mg/kg/injection, schedule: Q01DX009 (ip), vehicle: distilled water + Tween-80) was 86 % of control; the T/C (dose: 100.0 mg/kg/injection, schedule: Q01DX009 (ip), vehicle: distilled water + Tween-80) was 93 % of control; the T/C (dose: 200.0 mg/kg/injection, schedule: Q01DX009 (ip), vehicle: distilled water + Tween-80) is 89 % of control; the T/C (dose: 400.0 mg/kg/injection, schedule: Q01DX009 (ip), vehicle: distilled water + Tween-80) is 101 % of control.

`Nc1ccccc1Nc1ccncc1`: the T/C was 97 % of control (dose: 25.0 mg/kg/injection, schedule: Q01DX009 (ip), vehicle: suspension in saline); 100 % of control (dose: 50.0 mg/kg/injection, schedule: Q01DX009 (ip), vehicle: suspension in saline); 97 % of control (dose: 100.0 mg/kg/injection, schedule: Q01DX009 (ip), vehicle: suspension in saline).

On to `CCOc1c(N=Nc2ccc(Cl)cc2Cl)c(C)nn1C(N)=S`, for which the T/C (dose: 15.0 mg/kg/injection, schedule: Q01DX005 (ip), vehicle: Klucel (hydroxypropylcellulose) (HPC)) is 95 % of control and the T/C (dose: 30.0 mg/kg/injection, schedule: Q01DX005 (ip), vehicle: Klucel (hydroxypropylcellulose) (HPC)) is 90 % of control.

Consider `O=[N+]([O-])C1=CC(=N/Br)/C=CC/1=N/Br`, for which the T/C runs as follows: under setting [6], 94 % of control; under setting [7], 100 % of control; under setting [8], 118 % of control.

As to `Cc1ccc(C(=O)n2c(Br)c(/C=N/NC(N)=S)c3ccccc32)cc1`, the T/C (dose: 100.0 mg/kg/injection, schedule: Q01DX001 (ip), vehicle: Klucel (hydroxypropylcellulose) (HPC)) was 100 % of control; the T/C (dose: 200.0 mg/kg/injection, schedule: Q01DX001 (ip), vehicle: Klucel (hydroxypropylcellulose) (HPC)) was 100 % of control; the T/C (dose: 400.0 mg/kg/injection, schedule: Q01DX001 (ip), vehicle: Klucel (hydroxypropylcellulose) (HPC)) was 95 % of control.

For the molecule `CCOc1cc(/C=N\Nc2nncn2N)c(C)cc1N(CCCl)CCCl`, the T/C (dose: 50.0 mg/kg/injection, schedule: Q04DX003 (ip), vehicle: saline sonified) was 116 % of control.

As for `Cc1cc(NCCO)nc2c1ccc1ccccc12`, the T/C runs as follows: (dose: 25.0 mg/kg/injection, schedule: Q01DX009 (ip), vehicle: saline with Tween-80) 90 % of control; (dose: 50.0 mg/kg/injection, schedule: Q01DX009 (ip), vehicle: saline with Tween-80) 91 % of control; (dose: 100.0 mg/kg/injection, schedule: Q01DX009 (ip), vehicle: saline with Tween-80) 101 % of control.

`C=CCSc1nc2ccc(NC(=O)CCC(=O)O)cc2s1`: the T/C was 103 % of control under setting [3], 111 % of control under setting [4] and 93 % of control under setting [5].

As for `CCN(C)c1nc(N(C)C)nc(N(C)C)n1`, the T/C by setting is: (dose: 50.0 mg/kg/injection, schedule: Q04DX002 (ip), vehicle: saline with Tween-80) 100 % of control; (dose: 50.0 mg/kg/injection, schedule: Q04DX002 (ip), vehicle: saline) 109 % of control; (dose: 100.0 mg/kg/injection, schedule: Q04DX002 (ip), vehicle: saline with Tween-80) 107 % of control; (dose: 100.0 mg/kg/injection, schedule: Q04DX002 (ip), vehicle: saline) 110 % of control; (dose: 200.0 mg/kg/injection, schedule: Q04DX002 (ip), vehicle: saline with Tween-80) 100 % of control; (dose: 200.0 mg/kg/injection, schedule: Q04DX002 (ip), vehicle: saline) 109 % of control.
